The values that follow come from patent publication US20160000737A1, “TREATMENT OF PETS WITH SIRTUIN ACTIVATORS” (NUSIRT SCIENCES, INC., priority 2013, published 2016).

Marks after values point to notes of the source that are not given here.

Data set [1] deals with inflammatory biomarkers (C-reactive protein, IL-6, MCP-1, adiponectin). In words: Inflammatory biomarkers in diet-induced obese mice. In kind it is in vivo, c57/BL6 mice. To be noted: for Adiponectin / C-reactive protein / IL-6 / MCP-1: 6 weeks. As for the experimental part: (§1) The animals were housed in polypropylene cages at a room temperature of 22±2° C. and regime of 12 h light/dark cycle. The animals had free access to water and their experimental food throughout the experiment. At the of the treatment period (6 weeks) all animals were humanely euthanized, and blood and tissues collected for further experiments.

For another data set, the target named is T1, SIRT1 (Mus musculus, UniProt Q923E4).
T1 construct: effects of dietary treatments on adipose tissue Sirt1 activity; from tissue; host or cells: mouse adipose tissue
T1 sequence (Q923E4 1-737): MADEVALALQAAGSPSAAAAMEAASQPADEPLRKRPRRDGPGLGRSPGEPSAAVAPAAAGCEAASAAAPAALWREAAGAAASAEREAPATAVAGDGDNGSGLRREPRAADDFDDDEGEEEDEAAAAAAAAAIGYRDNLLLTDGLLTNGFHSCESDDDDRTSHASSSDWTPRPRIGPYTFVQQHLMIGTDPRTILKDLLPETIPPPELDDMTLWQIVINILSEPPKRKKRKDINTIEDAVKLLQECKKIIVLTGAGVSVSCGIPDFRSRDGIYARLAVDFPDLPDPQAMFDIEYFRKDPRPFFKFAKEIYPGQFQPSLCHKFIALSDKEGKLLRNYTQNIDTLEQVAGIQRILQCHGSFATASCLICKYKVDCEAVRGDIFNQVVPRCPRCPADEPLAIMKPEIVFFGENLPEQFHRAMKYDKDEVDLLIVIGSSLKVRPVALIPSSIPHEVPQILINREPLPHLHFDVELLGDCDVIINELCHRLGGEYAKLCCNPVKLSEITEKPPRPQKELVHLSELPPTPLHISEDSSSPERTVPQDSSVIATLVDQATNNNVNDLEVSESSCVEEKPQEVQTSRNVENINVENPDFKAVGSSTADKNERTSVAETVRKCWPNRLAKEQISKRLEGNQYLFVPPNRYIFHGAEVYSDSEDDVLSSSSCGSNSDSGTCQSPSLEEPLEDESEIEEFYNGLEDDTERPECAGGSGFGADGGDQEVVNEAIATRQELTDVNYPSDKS
Nature of the data set: Adipose tissue SIRT1 activity (SIRT1 Fluorimetric Drug Discovery Kit). The class given is in vivo, c57/BL6 mice. As for the experimental part:
SIRT1 activity was measured by using the SIRT1 Fluorimetric Drug Discovery Kit (BML-AK555, ENZO Life Sciences International, Inc. PA, USA). In this assay, SIRT1 activity is assessed by the degree of deacetylation of a standardized substrate containing an acetylated lysine side chain. The substrate utilized is a peptide containing amino acids 379-382 of human p53 (Arg-His-Lys-Lys[Ac]), an established target of SIRT1 activity; SIRT1 activity is directly proportional to the degree of deacetylation of Lys-382. Samples were incubated with peptide substrate (25 μM), and NAD^+ (500 μM) in a phosphate-buffered saline solution at 37° C. on a horizontal shaker for 45 minutes. The reaction was stopped with the addition of 2 mM nicotinamide and a developing solution that binds to the deacetylated lysine to form a fluorophore. Following 10 minutes incubation at 37° C., fluorescence was read in a plate-reading fluorometer at an excitation wavelength of 360 nm and an emission wavelength of 450 nm. Resveratrol ([…]) served as a SIRT1 activator and suramin sodium (25 mM) as a SIRT1 inhibitor; wells including each were utilized as positive and negative controls in each set of reactions. A standard curve was constructed using deacetylated substrate (0-10 μM). Data was normalized to cellular protein concentration measured via BCA-assay.

Data set [2] can be described thus: Circulating level after dosing. In kind it is in vivo.
Data set [3] relates to diet-induced obese mice. In words: Oxygen consumption/substrate utilization in metabolic chambers (CLAMS). In kind it is in vivo, c57/BL6 mice. On the procedure: at the end of the obesity induction period (day 0 of treatment group) and at 2 weeks and 6 weeks of treatment, oxygen consumption and substrate utilization was measured via metabolic chambers using the Comprehensive Lab Animal Monitoring Systems (CLAMS, Columbus Instruments, Columbus, Ohio) in subgroups of each treatment group. Each animal was placed in individual cages without bedding that allow automated, non-invasive data collection. Each cage is an indirect open circuit calorimeter that provides measurement of oxygen consumption, carbon dioxide production, and concurrent measurement of food intake. All mice were acclimatized to the chambers for 24 hours prior to the experiment and maintained under the regular 12:12 light:dark cycle with free access to water and food. All experiments were started in the morning and data were collected for 24 hours. Each chamber was passed with 0.61 of air/min and was sampled for 2 min at 32-minute intervals. Exhaust O2 and CO2 content from each chamber was compared with ambient O2 and CO2 content. Food consumption was measured by electronic scales.

Data set [4] relates to diet-induced obese mice. In words: Indices of insulin sensitivity (plasma glucose, insulin, HOMAIR). In kind it is in vivo, c57/BL6 mice. The note with it: resveratrol at either dose, HMB, each alone. On the procedure: Insulin sensitivity can be measured using a variety of techniques, including HOMAIR. HOMAIR, which is the homeostasis model assessment of insulin resistance can be used as a screening index of changes in insulin sensitivity. HOMAIR can be calculated via standard formula from fasting plasma insulin and glucose as follows: HOMAIR=[Insulin (uU/mL)×glucose (mM)]/22.5.
as §1

Data set [5] relates to diet-induced obese mice. Nature of the data set: Diet-induced obese mice on resveratrol/HMB/leucine diets: body weight, weight gain, adiposity. In kind it is in vivo, c57/BL6 mice. An excerpt:
Six week old male c57/BL6 mice were fed a high-fat diet with fat increased to 45% of energy (Research Diets D12451) for 6 weeks to induce obesity. At the end of this obesity induction period, animals were randomly divided into the following seven different diet treatment groups with 10 animals per group (overall 70 animals) and maintained on these diets for 6 weeks:
Group 1 (labeled “control group”): high-fat diet only (same as in obesity induction period (Research Diets D12451)).
This diet was modified for groups 2 to 7 in the following way:
Group 2 (labeled “low dose resveratrol”): high-fat diet mixed with 12.5 mg resveratrol/kg diet.
Group 3 (labeled “high dose resveratrol”): high-fat diet mixed with 225 mg resveratrol/kg diet.
Group 4 (labeled “low dose HMB”): high-fat diet mixed with 2 g of the calcium salt of hydroxymethylbutyrate, a naturally occurring metabolite of leucine (CaHMB).
Group 5 (labeled “low dose resveratrol plus low dose CaHMB”): high fat-diet mixed with 12.5 mg of resveratrol/kg diet and 2 g CaHMB/kg diet.
Group 6 (labeled “low dose resveratrol plus high dose HMB”): high fat-diet mixed with 12.5 mg of resveratrol/kg diet and 10 g CaHMB/kg diet.
The animals were housed in polypropylene cages at a room temperature of 22±2° C. and regime of 12 h light/dark cycle. The animals had free access to water and their experimental food throughout the experiment. […]

Data set [6] concerns diet-induced obese mice. Nature of the data set: microPET/CT glucose and palmitate uptake. In kind it is in vivo, c57/BL6 mice. The note with it: 6 weeks. As for the experimental part:
at the end of the treatment period (6 weeks of treatment) subgroups of each treatment diet group (5 animals/group, 35 animals total) were used to measure whole body glucose and palmitate uptake via PET/CT Imaging. To visualize these compounds using microPET imaging, the glucose or palmitate was labeled with fluorine-18 (108 mins half life) or carbon-11 (20 mins half life), respectively. Each mouse was fasted for 4 hours, then anesthetized using 1-3% isoflurane delivered by nose cone or in a mouse-sized induction chamber purpose-built for small animal imaging protocols. While under anesthesia the mice were injected iv with <2 mCi of each tracer, then be left for a period of time (minutes to up˜1 hour) to allow the uptake of the tracer. During the scan, mice were kept warm using a thermostatically controlled heated bed and were treated with ophthalmic ointment prior to scanning Following the live scan the mice were returned to their cage and revived. Mice were monitored constantly during this time. Following live data acquisition the mice were sacrificed by isoflurane overdose and organs harvested for further experiments.

The mark [7] stands for this setting: high dose: 225 mg resveratrol/kg diet.
Setting [8] is: low dose: 12.5 mg resveratrol/kg diet.

With `Oc1ccc(/C=C/c2cc(O)cc(O)c2)cc1` [Resveratrol, 3,5,4′-Trihydroxy-trans-stilbene], the “effect on MCP-1 or c-reactive protein” value in data set [1] (HMB or low dose of resveratrol alone) is reported as “neither HMB nor a low dose of resveratrol exerted any effect”. Further, the results for the “circulating IL-6” value in data set [1] (high dose of resveratrol) and in data set [1] (low dose of resveratrol alone) were “significantly reduced” and “no independent effect”, respectively. The values for the Adiponectin in data set [1] (setting [7]) and in data set [1] (setting [8]) were 14.8 ± 1.8^b ng/mL and 12.4 ± 1.1 ng/mL, respectively. Moreover, the C-reactive protein was 123.9 ± 35.3^a ng/mL in data set [1] (setting [7]) and 134.8 ± 8.5^a ng/mL in data set [1] (setting [8]). For the same compound, the IL-6 in data set [1] (setting [7]) was 14.1 ± 1.3^b pg/mL; in data set [1] (setting [8]), 23.2 ± 2.9^a pg/mL. The MCP-1 was 27.3 ± 6.8^b pg/mL in data set [1] (setting [7]) and 104.4 ± 16.5^a pg/mL in data set [1] (setting [8]). Besides, the “adipose tissue Sirt1 activity” value on SIRT1 (high dose resveratrol) is reported as “non-significant trend towards an increase”; on SIRT1 (resveratrol or HMB alone), “Neither resveratrol nor HMB exerted significant independent effects”. In addition, the “circulating level of resveratrol” value is given as “about 200 nM” in data set [2] (oral dosing of about 10 mg, subject about 30 lb); “about 200 nM” in data set [2] (oral dosing of about 50 mg, subject about 150 lb); “about 0.5 mM” in data set [2] (oral dosing of about 220 mg, subject about 30 lb); “about 0.5 mM” in data set [2] (oral dosing of about 1100 mg, subject about 150 lb). The RER entry in the data set with diet-induced obese mice [3] (high dose of resveratrol) was “decreased”. In addition, the “heat production and skeletal muscle fat oxidation” value in the data set on diet-induced obese mice [3] (high dose of resveratrol) is “significantly increased”. Moreover, the results for the “Respiratory Exchange Ratio (24 hr RER)” value in the data set on diet-induced obese mice [3] (setting [7]) and in the data set with diet-induced obese mice [3] (setting [8]) were 0.825 ± 0.007^b and 0.847 ± 0.008^a, respectively. The “effect on plasma insulin or on muscle glucose uptake” value with diet-induced obese mice [4] is listed as “Neither resveratrol at either dose nor HMB exerted any significant effect”. In addition, the “effect on body weight, weight gain, or visceral adipose tissue mass” value with diet-induced obese mice [5] (high dose resveratrol) is recorded as “no significant effect”. The “effect on body weight, weight gain, visceral adipose tissue mass, fat oxidation, respiratory exchange ratio (RER), or heat production” value in the data set with diet-induced obese mice [5] (low doses, each alone) was “no significant independent effect”. In addition, the “Muscle Glucose Uptake (18F-deoxyglucose SUV)” value is given as 3.87 ± 0.32^a SUV in the data set with diet-induced obese mice [6] (setting [7]) and 3.63 ± 1.29^a SUV with diet-induced obese mice [6] (setting [8]).
As to `CC(C)C[C@H](N)C(=O)O` [leucine, L-leucine], the “circulating level of leucine” value in data set [2] (dosing of about 60 mg leucine, subject weighing about 30 lb) is given as “about 0.25 mM”; in data set [2] (dosing of about 225 mg leucine, subject weighing about 30 lb) it was “about 0.5 mM”; in data set [2] (dosing of about 300 mg leucine, subject weighing about 150 lb) it was “about 0.25 mM”; in data set [2] (dosing of about 1,125 mg leucine, subject weighing about 150 lb) it was “about 0.5 mM”.
